The numbers were not newly measured in US20260014261A1, “TARGETED PROTEIN MODIFICATION” (Weatherwax Biotechnologies Corporation, priority 2022, published 2026), which cites them from elsewhere.

The target in this series is p53 (Homo sapiens, UniProt P04637). The note with it: read-out: binding affinity (Kd) for p53.

pKd: −log10 of the molar value.

Sequence of p53 (P04637 whole entry): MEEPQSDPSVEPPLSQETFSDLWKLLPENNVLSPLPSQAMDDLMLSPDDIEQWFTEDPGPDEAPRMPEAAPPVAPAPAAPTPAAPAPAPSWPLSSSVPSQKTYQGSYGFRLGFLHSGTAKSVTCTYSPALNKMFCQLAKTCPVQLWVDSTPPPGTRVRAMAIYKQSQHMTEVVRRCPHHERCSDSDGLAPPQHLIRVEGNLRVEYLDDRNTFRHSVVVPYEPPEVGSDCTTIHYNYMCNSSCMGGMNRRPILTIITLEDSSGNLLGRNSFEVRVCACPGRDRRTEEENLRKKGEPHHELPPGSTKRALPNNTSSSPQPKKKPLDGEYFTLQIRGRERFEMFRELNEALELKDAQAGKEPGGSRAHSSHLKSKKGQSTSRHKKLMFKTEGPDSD

Usually pKd stands for −log10 of the Kd, conventionally taken in molar units. For the compound `CN(C)CCCNc1nc(CN2CCN(C(c3ccc(Cl)cc3)c3ccc(Cl)cc3)CC2)nc2ccccc12` [SCH 529074], the pKd is approximately 6.00.
